Source: patent US9212177B2, “Antiviral compounds and methods of making and using thereof” (Versitech Limited, priority 2009, dated 2015)
Like-named read-outs stand apart in the source and are kept apart here.

Experiments:
Influenza A H1N1\WSN\33 = assay: microbe, parasite or virus in culture; format: cell-based, Influenza A virus; details: for EC50: read-out: EC50 by PRA
[1] = MTT cytotoxicity assay in MDCK cells; format: cell-based, canine; details: dog, MDCK cells, 24 hours incubation, concentrations tested 0 to 250 μM, read-out: TC50 in MDCK cells
Protocol: (§1) Cytotoxicity of Compounds 1-10 was measured by the 3-(4,5-dimethylthiazol-2-yl)-2,5-diphenyltetrazolium bromide (MTT, Sigma-Aldrich, USA) assay. The assay was performed by seeding Vero cells or MDCK cells at 20,000 cells/well in a total volume of 100 μl EMEM with 10% FBS in flat bottomed 96-well microtitre plates. After 24 hours of incubation, cells were washed twice with PBS and then replenished with fresh EMEM before the addition of the compounds. After the addition of the compounds, the cells were further incubated at 37° C. with 5% CO2 for 24 hours. MTT was added to each well to a final concentration of 0.5 mg/ml. The plates were further incubated at 37° C. with 5% CO2 for 4 hours. At the end of the incubation period, 100 μl of 10% of lauryl sulfate (SDS) in 0.01M of hydrochloric acid (HCl) was added to each well to solubilize the cells. After overnight incubation, the plates were read at 570 nm with 640 nm as the reference wavelength. The median toxic concentration, TC50, which represents the concentration of a compound required to reduce the MTT reading by 50%, was estimated from the MTT data.

[2] = MTT cytotoxicity assay in Vero cells; format: cell-based; details: African green monkey, Vero cells, 24 hours incubation, concentrations tested 0 to 250 μM, read-out: TC50 in Vero cells
Protocol: as §1

MDCK cells = assay: MTT cytotoxicity assay in MDCK cells; format: cell-based, canine; details: 24 hours incubation, concentrations tested 0 to 250 μM, read-out: TC50 in MDCK cells
Protocol: as §1

Vero cells = assay: MTT cytotoxicity assay in Vero cells; format: cell-based; details: 24 hours incubation, concentrations tested 0 to 250 μM, read-out: TC50 in Vero cells
Protocol: as §1

| SMILES | Selective Index (SI) (Influenza A H1N1\WSN\33) | EC50 (Influenza A H1N1\WSN\33; Influenza A virus, MDCK, 72 h) [µM] | CC50 at 24 h [1] [µM] | CC50 at 24 h [2] [µM] | EC50 (Influenza A H1N1\WSN\33) [µM] | CC50 (MDCK cells) [µM] | CC50 (Vero cells) [µM] |
| --- | --- | --- | --- | --- | --- | --- | --- |
| Cc1onc(-c2ccccc2)c1C(=O)N1CCN(c2ccc([N+](=O)[O-])cc2Cl)CC1C (centres unmarked) [Compound 7, [4-(2-chloro-4-nitro-phenyl)-2-methyl-piperazin-1-yl]-[3-phenyl-5-methylisoxazol-4-yl]-methanone] | >313 | 0.8 | > 250 | > 250 | – | – | – |
| Cc1onc(-c2ccccc2Cl)c1C(=O)N1CCN(c2ccc([N+](=O)[O-])cc2)CC1 [Compound 8, [4-(4-nitro-pheny1)-piperazin-1-yl]-[3-(2-chloro-phenyl)-5-methyl-isoxazol-4-yl]-methanone] | – | – | – | – | 5.1 | > 250 | > 250 |
| Cc1onc(-c2ccccc2Cl)c1C(=O)N1CCN(c2ccc([N+](=O)[O-])cc2Cl)CC1C (centres unmarked) [Compound 6, [4-(2-chloro-4-nitro-phenyl)-2-methyl-piperazin-1-yl]-[3-(2-chloro-phenyl)-5-methyl-isoxazol-4-yl]-methanone] | >1190 | 0.21 | > 250 | > 250 | – | – | – |
| Cc1onc(-c2ccc(O)cc2)c1C(=O)N1CCN(c2ccc([N+](=O)[O-])cc2Cl)CC1 [Compound 1, [4-(2-chloro-4-nitro-pheny1)-piperazin-1-yl]-[3-(4-hydroxy-pheny1)-5-methylisoxazol-4-yl]-methanone] | – | – | – | – | 0.05 | > 250 | > 250 |
| Cc1onc(-c2ccccc2Cl)c1C(=O)N1CCN(c2c(Cl)cccc2[N+](=O)[O-])CC1 [Compound 10, [4-(2-nitro-6-chloro-phenyl)-piperazin-1-yl]-[3-(2-chloro-phenyl)-5-methyl-isoxazol-4-yl]-methanone] | >10 | 25 | > 250 | > 250 | – | – | – |
| Cc1onc(-c2c(Cl)cccc2Cl)c1C(=O)N1CCN(c2ccc([N+](=O)[O-])cc2)CC1 [Compound 9, [4-(4-nitro-phenyl)-piperazin-1-yl]-[3-(2,6-dichloro-phenyl)-5-methyl-isoxazol-4-yl]-methanone] | >21 | 12 | > 250 | > 250 | – | – | – |
| Cc1onc(-c2ccccc2)c1C(=O)N1CCN(c2ccc([N+](=O)[O-])cc2Cl)CC1 [Compound 2, [4-(2-chloro-4-nitro-phenyl)-piperazin-1-yl]-[3-phenyl-5-methyl-isoxazol-4-yl]-methanone] | >4167 | 0.06 | > 250 | > 250 | – | – | – |
| Cc1onc(-c2ccc(N=[N+]=[N-])cc2)c1C(=O)N1CCN(c2ccc([N+](=O)[O-])cc2Cl)CC1 [Compound 4, [4-(2-chloro-4-nitro-pheny1)-piperazin-1-yl]-[3-(4-azido-pheny1)-5-methylisoxazol-4-yl]-methanone] | – | – | – | – | 0.25 | > 250 | > 250 |
| Cc1onc(-c2ccccc2Cl)c1C(=O)N1CCN(c2ccc([N+](=O)[O-])cc2Cl)CC1 [Compound 5, [4-(2-chloro-4-nitro-pheny1)-piperazin-1-yl]-[3-(2-chloro-phenyl)-5-methylisoxazol-4-yl]-methanone] | – | – | – | – | 0.04 | > 250 | > 250 |
| Cc1onc(-c2ccc(N)cc2)c1C(=O)N1CCN(c2ccc([N+](=O)[O-])cc2Cl)CC1 [Compound 3, [4-(2-chloro-4-nitro-phenyl)-piperazin-1-yl]-[3-(4-amino-phenyl)-methylisoxazol-4-yl]-methanone] | >4464 | – | > 250 | > 250 | – | – | – |
